Counter-ions that a name gives are not always drawn.

Usually ED50 stands for the midpoint of the dose-response relation. In general, mortality refers to the percentage killed.

The subject of data set [1] is passive cutaneous anaphylaxis. Briefly: PCA test on the rat, intravenous administration just before challenge with antigen. The format is in vivo, rat (male Sprague Dawley). Conditions: immediately before challenge; for inhibition in vivo at 0.3 mg/kg / inhibition in vivo at 1 mg/kg / inhibition in vivo at 3 mg/kg / inhibition in vivo at 10 mg/kg / ED50 / inhibition in vivo at 30 mg/kg: Rattus norvegicus, iv; for inhibition in vivo at 0.3 mg/kg / inhibition in vivo at 1 mg/kg: read-out: inhibition (%); for ED50: read-out: ED50 (conf. lim) P = 0.05. As for the experimental part: (§1) The serum, obtained from rats actively sensitized with ovalbumin (antigen) and suitably diluted, was injected intradermically into the shaven back of male Sprague Dawley rats (2 wheals per rat).
(§2) The rats were treated intravenously after 24 hours with a solution of ovalbumin and Evans blue. Thirty minutes later they were killed and the diameter and intensity of the blue ring formed at the site of the intradermic injection were measured.
(§3) For each treated group (5 per group) the % inhibition was then calculated with respect to the control group.
The pharmacological screening was effected by administering the compounds of the present invention intravenously and orally.
(§4) For intravenous administration (2 ml/kg), those compounds in which R1 =H (see formula I) were dissolved in an aqueous 1% NaHCO3 solution whereas for oral administration (4 ml/Kg) they were either suspended in 0.5% carboxymethylcellulose or dissolved in an aqueous 3% NaHCO3 solution.

Data set [2] deals with passive cutaneous anaphylaxis. Briefly: PCA test on the rat, oral administration before challenge with antigen. The format is in vivo, rat (male Sprague Dawley). Conditions: for inhibition in vivo at 3 mg/kg / inhibition in vivo at 10 mg/kg / inhibition in vivo at 30 mg/kg / ED50: Rattus norvegicus, po; for inhibition in vivo at 3 mg/kg / inhibition in vivo at 10 mg/kg / inhibition in vivo at 30 mg/kg / inhibition (%) / ED50: 5 minutes before challenge; for inhibition in vivo at 3 mg/kg / inhibition in vivo at 10 mg/kg / inhibition in vivo at 30 mg/kg: read-out: inhibition (%); for inhibition (%): oral; for ED50: 5 min, Table 2, oral administration, read-out: ED50 (conf. lim) P = 0.05; for ED50 OS/ED50 iv: oral 5 minutes before challenge / i.v. immediately before challenge. As for the experimental part: The serum, obtained from rats actively sensitized with ovalbumin (antigen) and suitably diluted, was injected intradermically into the shaven back of male Sprague Dawley rats (2 wheals per rat). The rats were treated intravenously after 24 hours with a solution of ovalbumin and Evans blue. Thirty minutes later they were killed and the diameter and intensity of the blue ring formed at the site of the intradermic injection were measured. […] The pharmacological screening was effected by administering the compounds of the present invention intravenously and orally. For intravenous administration (2 ml/kg), those compounds in which R1 =H (see formula I) were dissolved in an aqueous 1% NaHCO3 solution whereas for oral administration (4 ml/Kg) they were either suspended in 0.5% carboxymethylcellulose or dissolved in an aqueous 3% NaHCO3 solution.

Data set [3] concerns passive cutaneous anaphylaxis. In words: PCA test on the rat, time response curve after oral administration. The format is in vivo, rat (male Sprague Dawley). As to conditions: Rattus norvegicus, oral, 30 mg/kg/os, read-out: inhibition %. The method, then:
as §1, §2, §3, §4

The nature of data set [4]: Acute toxicity in the mouse, oral administration. The format is in vivo. Conditions: mouse, in vivo, po, 1000 mg/kg, oral, 1000 mg/kg/os; read-out: mortality (%EAD). As for the experimental part: (§5) Acute toxicity was evaluated in the mouse by administering the compounds orally at scalar doses to a maximum of 1000 mg/kg to evaluate the 50% lethal dose (LD50). The compounds were administered in carboxymethylcellulose (0.5%) in a volume of […] to male mice (Swiss stock) of average weight 20 g.

For a further data set, the system named is mouse. Briefly: Acute toxicity in the mouse, oral administration. The format is in vivo. As for the experimental part: as §5
Where [5] appears, read: 5 min, 5 minutes before challenge.
[6] abbreviates: 0.25 h, 15 minutes before challenge.
The mark [7] stands for this setting: 0.5 h, 30 minutes before challenge.
[8] abbreviates: 1 h, 60 minutes before challenge.
Where [9] appears, read: 2 h, 120 minutes before challenge.

`O=C(/C=C/c1cccnc1)Nc1nn[nH]n1` [VAL 47-017, N-1H-tetrazol-5-yl-[3-(3-pyridyl)]-acrylamide trans isomer]: the inhibition in vivo at 0.3 mg/kg in data set [1] stood at 45.7%. Also, in data set [1] (1 mg/kg), the inhibition in vivo at 1 mg/kg was determined as 71.6%. Besides, the results for the inhibition in vivo at 3 mg/kg in data set [1] (3 mg/kg) and in data set [2] (3 mg/kg) were 93.9% and 21.7%, respectively. Also, the inhibition in vivo at 10 mg/kg came out at 100% in data set [1] (10 mg/kg) and 22.8% in data set [2] (10 mg/kg). Besides, the ED50 in data set [1] was determined as 0.36 mg/kg. Moreover, the inhibition in vivo at 30 mg/kg in data set [2] (30 mg/kg) was found to be 48.3%; in data set [3] (setting [5]) it was 45%; in data set [3] (setting [6]) it was 7.3%; in data set [3] (setting [7]) it was 1%; in data set [3] (setting [8]), 0%; in data set [3] (setting [9]), 0%. The mortality in data set [4] was 0%. In the data set with mouse (oral, 1000 mg/kg/os, 8 treated), the “No. (dead)” value was 0.
Take `O=C(/C=C/c1ccc[nH]1)Nc1nn[nH]n1` [VAL 47-078, N-1H-tetrazol-5-yl-[3-(2-pyrrole)]-acrylamide trans isomer]: the inhibition in vivo at 1 mg/kg in data set [1] (1 mg/kg) came to 11.2%. In addition, the inhibition in vivo at 3 mg/kg in data set [1] (3 mg/kg) was found to be 41.3%; in data set [2] (3 mg/kg), 7.4%. Further, the inhibition in vivo at 10 mg/kg in data set [1] (10 mg/kg) stood at 78.6%; in data set [2] (10 mg/kg) it was 35.8%. In addition, the ED50 in data set [1] was determined as 3.85 mg/kg. Moreover, the inhibition in vivo at 30 mg/kg in data set [2] (30 mg/kg) came to 38.3%; in data set [3] (setting [5]) it was 31.4%; in data set [3] (setting [6]), 29.3%; in data set [3] (setting [7]), 9%; in data set [3] (setting [8]), 4.3%; in data set [3] (setting [9]), 0.5%. Moreover, the mortality in data set [4] was 0%. In the data set with mouse (oral, 1000 mg/kg/os, 8 treated), the “No. (dead)” value is given as 0.
Take `O=C(/C=C/c1c[nH]c2ccccc12)Nc1nn[nH]n1` [VAL 47-022, N-1H-tetrazol-5-yl-[3-(3-indolyl)]-acrylamide trans isomer]: the inhibition in vivo at 0.3 mg/kg in data set [1] came to 3.9%. In addition, the inhibition in vivo at 1 mg/kg in data set [1] (1 mg/kg) was determined as 43.4%. Besides, the inhibition in vivo at 3 mg/kg in data set [1] (3 mg/kg) was determined as 97.1%; in data set [2] (3 mg/kg), 17.8%. In addition, in data set [1], the ED50 was 1.01 mg/kg. Besides, the inhibition in vivo at 10 mg/kg in data set [2] (10 mg/kg) was found to be 46.6%. Further, the inhibition in vivo at 30 mg/kg in data set [2] (30 mg/kg) was found to be 40.8%; in data set [3] (setting [5]), 62.2%; in data set [3] (setting [6]), 52.7%; in data set [3] (setting [7]), 33.3%; in data set [3] (setting [8]), 19.4%; in data set [3] (setting [9]), 8.9%. Moreover, the mortality in data set [4] came out at 0%. Further, in the data set with mouse (oral, 1000 mg/kg/os, 8 treated), the “No. (dead)” value is given as 0.
Turning to `O=C(/C=C/c1cccs1)Nc1nn[nH]n1` [VAL 47-024, N-1H-tetrazol-5-yl-[3-(2-thienyl)] acrylamide trans isomer], the inhibition in vivo at 1 mg/kg in data set [1] (1 mg/kg) was determined as 18.1%. Further, the inhibition in vivo at 3 mg/kg is 64.9% in data set [1] (3 mg/kg) and 30.2% in data set [2] (3 mg/kg). The inhibition in vivo at 10 mg/kg was 100% in data set [1] (10 mg/kg) and 53.8% in data set [2] (10 mg/kg). Also, the ED50 in data set [1] worked out at 2.29 mg/kg. Also, the inhibition in vivo at 30 mg/kg in data set [2] (30 mg/kg) amounted to 53.3%; in data set [3] (setting [5]) it was 43.5%; in data set [3] (setting [6]), 52.7%; in data set [3] (setting [7]) it was 46.7%; in data set [3] (setting [8]) it was 30.4%; in data set [3] (setting [9]), 10.9%. Also, the mortality in data set [4] amounted to 0%. The “No. (dead)” value in the data set on mouse (oral, 1000 mg/kg/os, 8 treated) is 0.
As to `Cc1ccc(/C=C/C(=O)Nc2nn[nH]n2)s1` [VAL 47-005Na, N-1H-tetrazol-5-yl-[3-[5-methyl-(2-thienyl)]] acrylamide sodium salt trans isomer], the “inhibition (%)” value in data set [1] (i.v., 1 mg/kg) is given as 16.5%; in data set [1] (i.v., 3 mg/kg) it was 40.7%; in data set [1] (i.v., 10 mg/kg) it was 78.0%; in data set [2] (3 mg/kg), 26.7%; in data set [2] (10 mg/kg) it was 54.7%; in data set [2] (30 mg/kg), 65.8%. In addition, the “ED50 (conf. lim) P = 0.05” value in data set [1] (i.v.) is 3.74 (2.89-4.85) mg/kg/iv. Also, the “mortality (%EAD)” value with mouse (oral, 1000 mg/kg/os) worked out at 0%. Further, the “No. (dead)” value with mouse (oral, 1000 mg/kg/os, 8 treated) is 0.
Consider `O=C(/C=C/c1ccc(Br)s1)Nc1nn[nH]n1` [VAL 47-008, N-1H-tetrazol-5-yl-[3-[5-bromo-(2-thienyl)]]-acrylamide trans isomer], for which the inhibition in vivo at 1 mg/kg in data set [1] (1 mg/kg) came out at 0%. Moreover, the inhibition in vivo at 3 mg/kg amounted to 8.6% in data set [1] (3 mg/kg) and 32.5% in data set [2] (3 mg/kg). Moreover, the inhibition in vivo at 10 mg/kg turned out to be 31.9% in data set [1] (10 mg/kg) and 26.9% in data set [2] (10 mg/kg). Further, the inhibition in vivo at 30 mg/kg in data set [1] was 82.3%; in data set [2] (30 mg/kg) it was 43.7%; in data set [3] (setting [5]), 37.7%; in data set [3] (setting [6]), 16%; in data set [3] (setting [7]) it was 10.9%; in data set [3] (setting [8]) it was 3.4%. In data set [3] (setting [9]), the inhibition in vivo at 30 mg/kg worked out at 2.3%. In addition, in data set [1], the ED50 came to 12.8 mg/kg. In data set [4], the mortality amounted to 0%. For the same compound, the “No. (dead)” value with mouse (oral, 1000 mg/kg/os, 8 treated) stood at 0.
In the case of `Cc1ccc(/C=C/C(=O)Nc2nn[nH]n2)s1` [VAL 47-005, N-1H-tetrazol-5-yl-[3-[5-methyl-(2-thienyl)]] acrylamide trans isomer], the inhibition in vivo at 1 mg/kg in data set [1] (1 mg/kg) worked out at 20.3%. This compound also returned an inhibition in vivo at 3 mg/kg in data set [1] (3 mg/kg) of 43.4%. The inhibition in vivo at 10 mg/kg in data set [1] (10 mg/kg) worked out at 89.4%; in data set [2] (10 mg/kg), 43.8%. Further, the values for the ED50 in data set [1] and in data set [2] were 2.99 mg/kg and 12.4 mg/kg, respectively. Also, the inhibition in vivo at 30 mg/kg in data set [2] (30 mg/kg) was determined as 75.3%; in data set [3] (setting [5]), 75.5%; in data set [3] (setting [6]) it was 61.4%; in data set [3] (setting [7]), 37.5%; in data set [3] (setting [8]), 0%; in data set [3] (setting [9]) it was 11.4%. The “ED50 OS/ED50 iv” value in data set [2] is recorded as 4.13. The “inhibition (%)” value in data set [2] (3 mg/kg) stood at 9.6%. The mortality in data set [4] is 0%. The “No. (dead)” value in the data set on mouse (mouse, in vivo, po, 1000 mg/kg) is reported as 0.
Take `O=C(/C=C/c1ccco1)Nc1nn[nH]n1` [VAL 47-010, N-1H-tetrazol-5-yl-[3-(2-furyl)]-acrylamide trans isomer]: the inhibition in vivo at 1 mg/kg in data set [1] (1 mg/kg) came to 29%. Further, the inhibition in vivo at 3 mg/kg in data set [1] (3 mg/kg) turned out to be 40.2%; in data set [2] (3 mg/kg), 9.6%. For the same compound, the results for the inhibition in vivo at 10 mg/kg in data set [1] (10 mg/kg) and in data set [2] (10 mg/kg) were 84.1% and 35.9%, respectively. In addition, the inhibition in vivo at 30 mg/kg in data set [1] worked out at 95.3%; in data set [2] (30 mg/kg), 80.9%; in data set [3] (setting [5]), 51.4%; in data set [3] (setting [6]), 44.8%; in data set [3] (setting [7]), 21.9%; in data set [3] (setting [8]) it was 6.6%. Also, in data set [3] (setting [9]), the inhibition in vivo at 30 mg/kg amounted to 18.6%. Besides, the ED50 is 3.13 mg/kg in data set [1] and 12.4 mg/kg in data set [2]. The “ED50 OS/ED50 iv” value in data set [2] worked out at 3.95. For the same compound, the mortality in data set [4] was 25%. Also, the “No. (dead)” value in the data set with mouse (mouse, in vivo, po, 1000 mg/kg) is 2.

These data come from US5039684A, “Tetrazole amide derivatives of heterocyclic alkenyl acid and their use as antiallergic substances” (Valeas S. p. A., priority 1989, dated 1991).
